Assay results as given in ChEMBL document CHEMBL5244281, “Tackling multidrug-resistant Staphylococcus aureus by natural products and their analogues acting as NorA efflux pump inhibitors” (Bioorg Med Chem, 2023).
Values after ≈ are worked out from the molar mass of the structure shown.

How the values were obtained:
Staphylococcus aureus [1] = experiment: Synergistic antibacterial activity against Staphylococcus aureus 1199B overexpressing NorA gene assessed as fractional inhibitory concentration index at 2 ug/ml in presence of norfloxacin; assay type: functional; conditions: dose 2 µg/ml
Staphylococcus aureus [2] = experiment: Antibacterial activity against methicillin-resistant Staphylococcus aureus 1199B overexpressing NorA gene assessed as bacterial growth inhibition; assay type: functional
[3] = biological target: T1, Quinolone resistance protein NorA (Staphylococcus aureus) (UniProt P0A0J7); experiment: Inhibition of NorA efflux pump in methicillin-resistant Staphylococcus aureus clinical isolate assessed as EtBr MIC using EtBr as substrate at 64 ug/ml and measured for 20 mins by spectrofluorimetric analysis (Rvb=[…] ug/ml); conditions: dose 64.0 µg/ml
T1 sequence (whole entry): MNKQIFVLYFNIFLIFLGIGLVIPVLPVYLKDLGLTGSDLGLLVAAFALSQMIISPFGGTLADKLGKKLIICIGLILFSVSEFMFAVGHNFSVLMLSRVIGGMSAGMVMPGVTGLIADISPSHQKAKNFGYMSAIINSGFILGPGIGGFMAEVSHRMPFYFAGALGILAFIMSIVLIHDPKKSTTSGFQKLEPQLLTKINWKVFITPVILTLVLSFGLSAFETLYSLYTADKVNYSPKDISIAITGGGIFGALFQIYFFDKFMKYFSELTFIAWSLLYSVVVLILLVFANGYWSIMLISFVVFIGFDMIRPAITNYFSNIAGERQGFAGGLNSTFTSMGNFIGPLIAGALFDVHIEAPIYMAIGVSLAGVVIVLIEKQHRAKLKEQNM

Staphylococcus aureus [4] = experiment: Synergistic antibacterial activity against methicillin-resistant Staphylococcus aureus clinical isolate assessed as fractional inhibitory concentration index in presence of ciprofloxacin by checkerboard assay; assay type: functional
[5] = biological target: T1, Quinolone resistance protein NorA (Staphylococcus aureus); experiment: Inhibition of NorA efflux pump in methicillin-resistant Staphylococcus aureus clinical isolate assessed as decrease in ciprofloxacin MIC and measured for 20 mins in presence of ciprofloxacin by spectrofluorimetric analysis (Rvb=128 ug/ml)
Staphylococcus aureus [6] = experiment: Antibacterial activity against methicillin-resistant Staphylococcus aureus clinical isolate assessed as bacterial growth inhibition by broth dilution method; assay type: functional
[7] = biological target: T1, Quinolone resistance protein NorA (Staphylococcus aureus); experiment: Potentiation of ciprofloxacin-mediated inhibition of NorA efflux pump in Staphylococcus aureus 1199B overexpressing NorA efflux pump assessed as reduction in ciprofloxacin MIC (Rvb= […] ug/ml)
Staphylococcus aureus [8] = experiment: Antibacterial activity against norfloxacin resistant Staphylococcus aureus RN4220 overexpressing […] efflux pump gene assessed as bacterial growth inhibition incubated for 24 hrs by CLSI protocol based microdilution method; assay type: functional
Staphylococcus aureus [9] = experiment: Antibacterial activity against norfloxacin resistant Staphylococcus aureus IS-58 overexpressing TetK efflux pump gene assessed as bacterial growth inhibition incubated for 24 hrs by CLSI protocol based microdilution method; assay type: functional
Staphylococcus aureus [10] = experiment: Antibacterial activity against norfloxacin resistant Staphylococcus aureus 1199B overexpressing NorA efflux pump gene assessed as bacterial growth inhibition incubated for 24 hrs by CLSI protocol based microdilution method; assay type: functional
Staphylococcus aureus [11] = experiment: Antibacterial activity against Staphylococcus aureus ATCC 25923 assessed as bacterial growth inhibition incubated for 24 hrs by resazurin based microdilution assay; assay type: functional
Staphylococcus aureus [12] = experiment: Antibacterial activity against Staphylococcus aureus 1199 assessed as bacterial growth inhibition incubated for 24 hrs by resazurin based microdilution assay; assay type: functional
Candida albicans [13] = experiment: Antifungal activity against Candida albicans NEWP031 assessed as bacterial growth inhibition incubated for 24 hrs by resazurin based microdilution assay; assay type: functional
[14] = biological target: T1, Quinolone resistance protein NorA (Staphylococcus aureus); experiment: Potentiation of EtBr-induced inhibition of NorA efflux in Staphylococcus aureus 1199B overexpressing NorA assessed as reduction in EtBr MIC at 256 ug/ml incubated for 24 hrs by resazurin based assay (Rvb= 32 ug/ml); conditions: dose 256.0 µg/ml
Staphylococcus aureus [15] = experiment: Antibacterial activity against Staphylococcus aureus SA10 assessed as bacterial growth inhibition incubated for 24 hrs by resazurin based microdilution assay; assay type: functional
Staphylococcus aureus [16] = experiment: Antibacterial activity against norfloxacin resistant Staphylococcus aureus 1199B overexpressing NorA assessed as bacterial growth inhibition incubated for 24 hrs by resazurin based microdilution assay; assay type: functional
Escherichia coli [17] = experiment: Antibacterial activity against Escherichia coli ATCC […] assessed as bacterial growth inhibition incubated for 24 hrs by resazurin based microdilution assay; assay type: functional
[18] = biological target: T1, Quinolone resistance protein NorA (Staphylococcus aureus); conditions: 1199B, dose 128.0 µg/ml, time 24.0 hrs
Candida albicans [19] = experiment: Antimicrobial activity against Candida albicans ATCC 10231 assessed as […] growth inhibition incubated for 24 hrs by microdilution method; assay type: functional
Escherichia coli [20] = experiment: Antibacterial activity against Escherichia coli ATCC 25922 assessed as bacterial growth inhibition incubated for 24 hrs by microdilution method; assay type: functional
Staphylococcus aureus [21] = experiment: Antibacterial activity against wild type Staphylococcus aureus ATCC 25923 assessed as bacterial growth inhibition incubated for 24 hrs by microdilution method; assay type: functional
[22] = biological target: T1, Quinolone resistance protein NorA (Staphylococcus aureus); conditions: 1199B
Staphylococcus aureus [23] = experiment: Antibacterial activity against Staphylococcus aureus 1199B overexpressing NorA efflux protein assessed as bacterial growth inhibition incubated for 24 hrs by microdilution method; assay type: functional
Klebsiella pneumoniae = experiment: Antimicrobial activity against Klebsiella pneumoniae 1213-2 assessed as bacterial growth inhibition incubated for 18 hrs by broth microdilution assay; assay type: functional
Staphylococcus aureus [24] = experiment: Antimicrobial activity against Staphylococcus aureus BAA-44 assessed as bacterial growth inhibition incubated for 18 hrs by broth microdilution assay; assay type: functional
Enterococcus faecium = experiment: Antimicrobial activity against Enterococcus faecium ATCC 700221 assessed as bacterial growth inhibition incubated for 18 hrs by broth microdilution assay; assay type: functional
Escherichia coli [25] = experiment: Antimicrobial activity against Escherichia coli ATCC 25922 assessed as bacterial growth inhibition incubated for 18 hrs by broth microdilution assay; assay type: functional
Staphylococcus aureus [26] = experiment: Antimicrobial activity against Staphylococcus aureus ATCC 29213 assessed as bacterial growth inhibition incubated for 18 hrs by broth microdilution assay; assay type: functional
Staphylococcus aureus [27] = experiment: Antimicrobial activity against Staphylococcus aureus ATCC 43300 assessed as bacterial growth inhibition incubated for 18 hrs by broth microdilution assay; assay type: functional
Enterococcus faecalis = experiment: Antimicrobial activity against Enterococcus faecalis ATCC 29212 assessed as bacterial growth inhibition incubated for 18 hrs by broth microdilution assay; assay type: functional
Staphylococcus aureus [28] = experiment: Antibacterial activity against Staphylococcus aureus K4414 overexpressing qacA/B gene assessed as bacterial growth inhibition incubated for 24 hrs by resazurin based microdilution assay; assay type: functional
Staphylococcus aureus [29] = experiment: Antibacterial activity against Staphylococcus aureus K4100 overexpressing qacC gene assessed as bacterial growth inhibition incubated for 24 hrs by resazurin based microdilution assay; assay type: functional
Staphylococcus aureus [30] = experiment: Antibacterial activity against wild type Staphylococcus aureus ATCC 25923 assessed as bacterial growth inhibition incubated for 24 hrs by resazurin based microdilution assay; assay type: functional
Staphylococcus aureus [31] = experiment: Antibacterial activity against Staphylococcus aureus K2068 overexpressing mepA gene assessed as bacterial growth inhibition incubated for 24 hrs by resazurin based microdilution assay; assay type: functional
Staphylococcus aureus [32] = experiment: Antibacterial activity against Staphylococcus aureus RN4220 overexpressing […] efflux protein assessed as bacterial growth inhibition incubated for 24 hrs by resazurin based microdilution assay; assay type: functional
Staphylococcus aureus [33] = experiment: Antibacterial activity against Staphylococcus aureus IS-58 overexpressing TetK efflux protein assessed as bacterial growth inhibition incubated for 24 hrs by resazurin based microdilution assay; assay type: functional
Staphylococcus aureus [34] = experiment: Antibacterial activity against Staphylococcus aureus 1199B overexpressing NorA efflux protein assessed as bacterial growth inhibition incubated for 24 hrs by resazurin based microdilution assay; assay type: functional
[35] = biological target: T1, Quinolone resistance protein NorA (Staphylococcus aureus); conditions: 1199B, dose 64.0 µg/ml
Staphylococcus aureus [36] = experiment: Antibacterial activity against Staphylococcus aureus ATCC25923 assessed as bacterial growth inhibition incubated for 18 hrs by MTT assay; assay type: functional
Staphylococcus aureus [37] = experiment: Antibacterial activity against Staphylococcus aureus RN4220 assessed as bacterial growth inhibition incubated for 18 hrs by MTT assay; assay type: functional
Staphylococcus aureus [38] = experiment: Antibacterial activity against Staphylococcus aureus EMRSA-16 assessed as bacterial growth inhibition incubated for 18 hrs by MTT assay; assay type: functional
Staphylococcus aureus [39] = experiment: Antibacterial activity against Staphylococcus aureus 1199B overexpressing NorA assessed as bacterial growth inhibition incubated for 18 hrs by MTT assay; assay type: functional
Staphylococcus aureus [40] = experiment: Antibacterial activity against tetracycline-resistant Staphylococcus aureus XU212 assessed as bacterial growth inhibition incubated for 18 hrs by MTT assay; assay type: functional
Staphylococcus aureus [41] = experiment: Synergistic antibacterial activity against Staphylococcus aureus 1199B overexpressing NorA assessed as fractional Inhibitory concentration index at 64 ug/ml in presence of norfloxacin by broth dilution method; assay type: functional; conditions: dose 64 µg/ml
Staphylococcus aureus [42] = experiment: Antibacterial activity against Staphylococcus aureus EMRSA-15 assessed as bacterial growth inhibition incubated for 18 hrs by MTT assay; assay type: functional

## COc1cc(-c2cc(=O)c3c(O)cc(O)cc3o2)ccc1O [CHRYSOERIOL]
Staphylococcus aureus [1]
  fractional inhibitory concentration index (FICI): 0.266
Staphylococcus aureus [2]
  MIC: 256 µg/mL (≈ 853 µM)

## CCN(CC)C(=O)/C=C/c1ccc(OC(C)=O)c(OC)c1
[3]
  MIC: 4 µg/mL
Staphylococcus aureus [4]
  fractional inhibitory concentration index (FICI): 0.325
[5]
  MIC: 32 µg/mL
Staphylococcus aureus [6]
  MIC: > 125 µg/mL

## CCOC(=O)/C=C/C(C)=C/c1ccc2c(c1)CCC(C)(C)O2
[7]
  MIC: 3.12 µg/mL

## O=C(O)/C=C/c1ccc(O)c(O)c1 [CAFFEIC ACID]
Staphylococcus aureus [8]
  MIC: 1020 µg/mL (≈ 5680 µM)
Staphylococcus aureus [9]
  MIC: 1020 µg/mL (≈ 5680 µM)
Staphylococcus aureus [10]
  MIC: 1020 µg/mL (≈ 5680 µM)

## CC(/C=C/C(=O)N1CCCC1)=C\c1ccc2c(c1)CCC(C)O2 (stereo not given)
[7]
  MIC: 3.12 µg/mL

## CC(C)=CCC/C(C)=C\CO [NEROL]
Staphylococcus aureus [11]
  MIC: ≥ 1020 µg/mL
Staphylococcus aureus [12]
  MIC: ≥ 1020 µg/mL
Candida albicans [13]
  MIC: 212 µg/mL (≈ 1370 µM)
[14]
  MIC: 16 µg/mL
Staphylococcus aureus [15]
  MIC: ≥ 1020 µg/mL
Staphylococcus aureus [16]
  MIC: ≥ 1020 µg/mL
Escherichia coli [17]
  MIC: 512 µg/mL (≈ 3320 µM)
[18]
  MIC: 32 µg/mL (≈ 207 µM)

## CC(C)CCCC(C)CCO (stereo not given)
Staphylococcus aureus [11]
  MIC: ≥ 1020 µg/mL
Staphylococcus aureus [12]
  MIC: ≥ 1020 µg/mL
Candida albicans [13]
  MIC: 2050 µg/mL (≈ 12900 µM)
[14]
  MIC: 16 µg/mL
Staphylococcus aureus [15]
  MIC: ≥ 1020 µg/mL
Staphylococcus aureus [16]
  MIC: ≥ 1020 µg/mL
Escherichia coli [17]
  MIC: 2050 µg/mL (≈ 12900 µM)
[18]
  MIC: 32 µg/mL (≈ 202 µM)

## COc1ccc(/C=C/[C@@H]2c3c(cc(O)cc3OC)C[C@H]3c4ccc(O)cc4O[C@H](c4ccccc4)[C@@H]23)cc1
Candida albicans [19]
  MIC: 161 µg/mL (≈ 318 µM)
Escherichia coli [20]
  MIC: > 1020 µg/mL
Staphylococcus aureus [21]
  MIC: > 1020 µg/mL
[22]
  MIC: 16 µg/mL (≈ 31.6 µM)
Staphylococcus aureus [23]
  MIC: > 1020 µg/mL

## CN(CC[C@H](N)CC(=O)N[C@H]1C=C[C@H](n2ccc(N)nc2=O)O[C@@H]1C(=O)O)C(=N)N [BLASTICIDIN_S]
Klebsiella pneumoniae
  MIC: 50 µg/mL (≈ 118 µM)
Staphylococcus aureus [24]
  MIC: 25 µg/mL (≈ 59.2 µM)
Enterococcus faecium
  MIC: 200 µg/mL (≈ 473 µM)
Escherichia coli [25]
  MIC: 100 µg/mL (≈ 237 µM)
Staphylococcus aureus [26]
  MIC: 50 µg/mL (≈ 118 µM)
Staphylococcus aureus [27]
  MIC: 100 µg/mL (≈ 237 µM)
Enterococcus faecalis
  MIC: 25 µg/mL (≈ 59.2 µM)

## COc1ccc(/C=C/C(=O)c2cc(O)c(O)c(OC)c2)cc1OC
[22]
  MIC: 16 µg/mL (≈ 48.4 µM)
Staphylococcus aureus [28]
  MIC: 100 µg/mL (≈ 303 µM)
Staphylococcus aureus [29]
  MIC: 100 µg/mL (≈ 303 µM)
Staphylococcus aureus [30]
  MIC: 100 µg/mL (≈ 303 µM)
Staphylococcus aureus [31]
  MIC: 100 µg/mL (≈ 303 µM)
Staphylococcus aureus [32]
  MIC: 100 µg/mL (≈ 303 µM)
Staphylococcus aureus [33]
  MIC: 100 µg/mL (≈ 303 µM)
Staphylococcus aureus [34]
  MIC: 100 µg/mL (≈ 303 µM)

## O=c1c(-c2ccc(O)cc2)coc2cc(O)cc(O)c12 [GENISTEIN]
[35]
  MIC: 16 µg/mL (≈ 59.2 µM)
Staphylococcus aureus [36]
  MIC: 32 µg/mL (≈ 118 µM)
Staphylococcus aureus [37]
  MIC: 32 µg/mL (≈ 118 µM)
Staphylococcus aureus [38]
  MIC: 8 µg/mL (≈ 29.6 µM)
Staphylococcus aureus [39]
  MIC: 32 µg/mL (≈ 118 µM)
Staphylococcus aureus [40]
  MIC: 32 µg/mL (≈ 118 µM)
Staphylococcus aureus [41]
  fractional inhibitory concentration index (FICI): 0.38
Staphylococcus aureus [42]
  MIC: 32 µg/mL (≈ 118 µM)
